The results in this text go back to ChEMBL document CHEMBL1201862, “PubChem BioAssay data set” (2004).

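48-hour exposure; five concentrations; linearly interpolated endpoints. At the GI50, growth is halved.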 The source made the active and inactive calls. Cut-off read from the data, not from the text of the source: active = GI50 up to about 1.1 µM and inactive = higher.

Some test systems named below: EKVX; SF-539; SNB-75; U-251; OVCAR-4; UACC-62; CCRF-CEM; LOX IMVI; NCI-H23; HL-60; CAKI-1; MCF7; Malme-3M; HOP-92; SR; PC-3; TK-10; M14; SF-295; UO-31.
Holding throughout (test): growth of human tumour cells (NCI), 48 h

Take `C[C@H](CCC(=O)O)[C@H]1CC[C@H]2[C@@H]3[C@@H](O)C[C@@H]4C[C@H](O)CC[C@]4(C)[C@H]3C[C@H](O)[C@]12C`: the GI50 in the experiment on EKVX, in the experiment with SF-539, in the experiment with SNB-75, in the experiment with U-251, in the experiment with OVCAR-4 and in the experiment with UACC-62 was > 100 µM (inactive) in each case. Further, the GI50 in the experiment on CCRF-CEM, in the experiment with LOX IMVI, in the experiment with NCI-H23, in the experiment with HL-60, in the experiment with CAKI-1 and with MCF7 was > 100 µM (inactive) throughout. Besides, the GI50 in the experiment with Malme-3M, with HOP-92, with SR, in the experiment on PC-3, in the experiment with TK-10 and with M14 was > 100 µM (inactive) throughout.
With `C/C(=N/NC(=S)Nc1ccccc1C)c1ccccn1`, the GI50 in the experiment with EKVX is 0.167 µM (active); in the experiment with SF-539, 1.01 µM (active); with SF-295, 0.175 µM (active); in the experiment with SNB-75 it was 0.583 µM (active); with U-251 it was 0.0571 µM (active); in the experiment with UO-31 it was 0.43 µM (active). Besides, the GI50 is 0.279 µM (active) with OVCAR-4; 0.232 µM (active) with UACC-62; 0.0206 µM (active) in the experiment on CCRF-CEM; < 0.0149 µM (active) in the experiment with LOX IMVI; < 0.0189 µM (active) in the experiment with NCI-H23; 0.0143 µM (active) in the experiment with HL-60. The GI50 in the experiment with MCF7 was 0.0164 µM (active); in the experiment with Malme-3M, 1.6 µM (inactive); in the experiment on HOP-92, 1.09 µM (active); with SR, 0.0229 µM (active); in the experiment on PC-3, < 0.0153 µM (active); in the experiment on TK-10, 0.259 µM (active). The GI50 in the experiment with M14 is < 0.0258 µM (active).
As for `O=C1CC(O)c2cscc21` (stereo not given), the GI50 with EKVX, in the experiment on SF-539, in the experiment on SF-295, with SNB-75, in the experiment with U-251 and with OVCAR-4 was > 100 µM (inactive) each time. Also, the GI50 is > 100 µM (inactive) with UACC-62; 21.6 µM (inactive) in the experiment on CCRF-CEM; 36.5 µM (inactive) in the experiment with LOX IMVI; > 100 µM (inactive) in the experiment on NCI-H23; > 100 µM (inactive) with HL-60; > 100 µM (inactive) with CAKI-1. Moreover, the GI50 was > 100 µM (inactive) in the experiment on MCF7; > 100 µM (inactive) in the experiment on Malme-3M; > 100 µM (inactive) in the experiment on HOP-92; 29.5 µM (inactive) in the experiment on SR; > 100 µM (inactive) in the experiment on PC-3; > 100 µM (inactive) with TK-10.
As to `CN(C)/C=N/S(=O)(=O)c1nn2c(C=O)c(-c3ccc([N+](=O)[O-])cc3)nc2s1`, the GI50 in the experiment on EKVX was 16.6 µM (inactive); with SF-539, 8.11 µM (inactive); in the experiment with SF-295 it was 35.1 µM (inactive); in the experiment on SNB-75, 23.6 µM (inactive); with U-251, 8.69 µM (inactive); in the experiment with UO-31, 2.61 µM (inactive). Besides, the GI50 in the experiment with OVCAR-4 is 11.4 µM (inactive); with UACC-62, 4.91 µM (inactive); with CCRF-CEM it was 0.834 µM (active); in the experiment on LOX IMVI it was 2.93 µM (inactive); with NCI-H23 it was 12 µM (inactive); with HL-60, 1.38 µM (inactive). Also, the GI50 with CAKI-1 was 0.627 µM (active); in the experiment on MCF7, 4.68 µM (inactive); in the experiment on Malme-3M, 2.23 µM (inactive); with HOP-92, 12.6 µM (inactive); with SR it was 2.06 µM (inactive); in the experiment on PC-3 it was 7.21 µM (inactive). Besides, the values for the GI50 with TK-10 and with M14 were 5.73 µM (inactive) and 2.79 µM (inactive), respectively.
On to `COc1cc(C(c2cc(OC)c(OC)c(OC)c2)N2C(=O)CCC2C(=O)O)cc(OC)c1OC` (stereo not given), for which the GI50 in the experiment on EKVX, with SF-539, in the experiment with SF-295, in the experiment with SNB-75, with U-251 and with UO-31 was > 100 µM (inactive) throughout. Also, the GI50 with OVCAR-4, in the experiment with UACC-62, with CCRF-CEM, with NCI-H23, with HL-60 and in the experiment on CAKI-1 was > 100 µM (inactive) throughout. Moreover, the GI50 in the experiment with MCF7, in the experiment with Malme-3M, with HOP-92, in the experiment with SR, in the experiment with PC-3 and in the experiment with M14 was > 100 µM (inactive) each time.
On to `COC(=O)c1ccc2c(c1)CC1(C2)Cc2ccccc2C1=O` (stereo not given), for which the GI50 in the experiment on EKVX is 29.5 µM (inactive); in the experiment on SF-539, 38.6 µM (inactive); in the experiment with SF-295, 39.4 µM (inactive); in the experiment with SNB-75, 24.3 µM (inactive); in the experiment on U-251, 34.2 µM (inactive); in the experiment with UO-31, 22.4 µM (inactive). Besides, the GI50 with OVCAR-4 is 32.3 µM (inactive); in the experiment on CCRF-CEM, 19.9 µM (inactive); with LOX IMVI, 22.4 µM (inactive); in the experiment with NCI-H23 it was 29.5 µM (inactive); with HL-60, 26.5 µM (inactive); in the experiment with CAKI-1 it was 34.7 µM (inactive). Besides, the GI50 in the experiment on MCF7 was 22.9 µM (inactive); in the experiment with Malme-3M, 20.8 µM (inactive); in the experiment with HOP-92 it was 18.1 µM (inactive); with SR it was 22.2 µM (inactive); in the experiment on PC-3 it was 42.8 µM (inactive); with TK-10, 31 µM (inactive). Besides, the GI50 in the experiment with M14 is 18.7 µM (inactive).
In the case of `O=C1/C(=C\c2cccc(Oc3ccccc3)c2)S(=O)(=O)C(c2ccccc2)N1c1cc(Cl)ccc1Cl` (stereo not given), the GI50 is 27.8 µM (inactive) in the experiment on EKVX; 5.43 µM (inactive) with SF-539; 14.2 µM (inactive) with SF-295; 23.9 µM (inactive) in the experiment with SNB-75; 16.5 µM (inactive) in the experiment on U-251; 16.8 µM (inactive) in the experiment with UO-31. Besides, the GI50 with OVCAR-4 is 23.1 µM (inactive); in the experiment on UACC-62, 15.2 µM (inactive); in the experiment on CCRF-CEM, 3.05 µM (inactive); in the experiment with LOX IMVI it was 5.25 µM (inactive); with NCI-H23, 19.4 µM (inactive); in the experiment with CAKI-1, 24.7 µM (inactive). For the same compound, the GI50 in the experiment on MCF7 was 4.13 µM (inactive); with Malme-3M it was 20.1 µM (inactive); in the experiment on HOP-92 it was 16.9 µM (inactive); in the experiment on SR, 6.31 µM (inactive); in the experiment with PC-3 it was 32.4 µM (inactive); in the experiment on TK-10 it was 22.3 µM (inactive). For the same compound, in the experiment on M14, the GI50 was 16.5 µM (inactive).
In the case of `CC1=C(C(=O)N[C@@H](CC(C)C)C(=O)O)N2C(=O)[C@@H](NC(=O)[C@@H](N)Cc3ccccc3)[C@H]2SC1`, the GI50 in the experiment on EKVX, with SF-539, with SF-295, with SNB-75, with U-251 and in the experiment with OVCAR-4 was > 100 µM (inactive) throughout. In addition, the GI50 with UACC-62, in the experiment with CCRF-CEM, in the experiment on LOX IMVI, in the experiment with HL-60, in the experiment with CAKI-1 and in the experiment on MCF7 was > 100 µM (inactive) throughout. The GI50 in the experiment with Malme-3M, with HOP-92, in the experiment on SR, in the experiment with PC-3, with TK-10 and in the experiment on M14 was > 100 µM (inactive) in each case.
Regarding `N#C[BH2-][n+]1cn(C2CC(OP(=O)(O)OCC3OC(n4ccc(N)nc4=O)CC3O)C(CO)O2)c2nc(N)[nH]c(=O)c21` (stereo not given), the GI50 in the experiment on EKVX, in the experiment on SF-539, with SF-295, in the experiment with SNB-75, in the experiment on U-251 and in the experiment with UO-31 was > 100 µM (inactive) in each case. The GI50 with OVCAR-4, in the experiment with UACC-62, with CCRF-CEM, in the experiment with LOX IMVI, with NCI-H23 and in the experiment on HL-60 was > 100 µM (inactive) each time. For the same compound, the GI50 in the experiment on CAKI-1, in the experiment with MCF7, in the experiment with Malme-3M, in the experiment on HOP-92, in the experiment on SR and in the experiment on PC-3 was > 100 µM (inactive) in each case. In addition, the GI50 in the experiment on TK-10 is > 100 µM (inactive).
Turning to `FC(F)(F)c1ccc2c(c1)nc(Cc1ccc(Cl)cc1)n2CC1CCCN2CCCCC12` (stereo not given), the GI50 in the experiment on EKVX is 11.1 µM (inactive); in the experiment on SF-295, 10.5 µM (inactive); with SNB-75, 1.59 µM (inactive); with U-251, 8.24 µM (inactive); with UO-31 it was 0.0194 µM (active); with OVCAR-4 it was 12.2 µM (inactive). Moreover, the GI50 in the experiment on UACC-62 was 2.89 µM (inactive); in the experiment on LOX IMVI, 2.15 µM (inactive); in the experiment on HL-60 it was 2.23 µM (inactive); in the experiment with CAKI-1 it was 14.8 µM (inactive); with MCF7, 10.2 µM (inactive); with Malme-3M, 1.73 µM (inactive). For the same compound, the GI50 with HOP-92 is 7.67 µM (inactive); in the experiment with SR, 2.29 µM (inactive); in the experiment on PC-3 it was 8.65 µM (inactive); with TK-10, 12.2 µM (inactive); with M14, 2.07 µM (inactive).
